Columns and labels:
Assay in all cases: Test C pre-/postemergence herbicide test
goosegrass = format: in vivo, Eleusine indica; settings: for Goosegrass plant response rating: Preemergence, 500 g ai/ha
Summary of the method: (§1)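 Visual injury scores run from 0 (no effect) to 100 (complete control), assessed relative to untreated controls 12 to 14 days after treatment in the greenhouse. Chemicals were formulated in a non-phytotoxic solvent mixture with surfactant and applied to soil after planting or to emerged plants at the 1- to 4-leaf stage.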

woolly cupgrass = format: in vivo, Eriochloa villosa; settings: for Cupgrass, Woolly plant response rating: 500 g ai/ha
Summary of the method: as §1

large crabgrass = format: in vivo, Digitaria sanguinalis; settings: for Crabgrass, Large plant response rating: 500 g ai/ha
Summary of the method: as §1

bermudagrass = format: in vivo, Cynodon dactylon
Summary of the method: as §1

giant foxtail = format: in vivo, Setaria faberi; settings: for Foxtail, Giant plant response rating: 500 g ai/ha
Summary of the method: as §1

pigweed = format: in vivo, Amaranthus retroflexus; settings: for Pigweed plant response rating: 500 g ai/ha
Summary of the method: as §1

[1] = scale 0 to 100, 0 no effect, 100 complete control
[2] = Preemergence, scale 0 to 100, 0 no effect, 100 complete control
[3] = 125 g ai/ha, scale 0 (no effect) to 100 (complete control), visual, 12 to 14 days, preemergence
[4] = 250 g ai/ha, scale 0 to 100 (0 no effect, 100 complete control), visual, 12 to 14 days, preemergence
[5] = Postemergence, 125 g ai/ha, scale 0 to 100, 0 no effect, 100 complete control
[6] = Postemergence, 250 g ai/ha, scale 0 to 100, 0 no effect, 100 complete control
[7] = postemergence, 62 g ai/ha, scale 0 to 100
[8] = 62 g ai/ha, preemergence, scale 0 to 100
[9] = 250 g ai/ha, scale 0-100, preemergence
[10] = postemergence, 125 g ai/ha, scale 0 to 100

CCc1nn(C(C)(C)C)cc1C(=O)Nc1cccc(C(=O)N(CC)CC)c1 [Compound 182, N-[3-[(diethylamino)carbonyl]phenyl]-1-(1,1-dimethylethyl)-3-ethyl-1H-pyrazole-4-carboxamide]
pest or weed control at 62 g/ha (goosegrass; Eleusine indica, pre-emergence, 312 h, 62 g ai/ha, preemergence, scale 0 to 100, read-out: Plant response rating, Goosegrass): 0% | pest or weed control at 125 g/ha (goosegrass; Eleusine indica, pre-emergence, 312 h, 125 g ai/ha, scale 0 (no effect) to 100 (complete control), visual, 12 to 14 days, read-out: Plant response rating, Goosegrass): 25% | Goosegrass plant response rating (goosegrass; [1]): 80 | pest or weed control at 62 g/ha (woolly cupgrass; Eriochloa villosa, pre-emergence, 312 h, 62 g ai/ha, preemergence, scale 0 to 100, read-out: Plant response rating, Cupgrass, Woolly): 0% | pest or weed control at 125 g/ha (woolly cupgrass; Eriochloa villosa, pre-emergence, 312 h, 125 g ai/ha, scale 0 (no effect) to 100 (complete control), visual, 12 to 14 days, read-out: Plant response rating, Cupgrass, Woolly): 0% | pest or weed control at 250 g/ha (woolly cupgrass; Eriochloa villosa, pre-emergence, 312 h, 250 g ai/ha, scale 0 to 100 (0 no effect, 100 complete control), visual, 12 to 14 days, read-out: Plant response rating, Cupgrass, Woolly): 0% | Cupgrass, Woolly plant response rating (woolly cupgrass; [2]): 0 | pest or weed control at 62 g/ha (large crabgrass; Digitaria sanguinalis, pre-emergence, 312 h, 62 g ai/ha, preemergence, scale 0 to 100, read-out: Plant response rating, Crabgrass, Large): 0% | pest or weed control at 125 g/ha (large crabgrass; Digitaria sanguinalis, pre-emergence, 312 h, 125 g ai/ha, scale 0 (no effect) to 100 (complete control), visual, 12 to 14 days, read-out: Plant response rating, Crabgrass, Large): 25% | pest or weed control at 250 g/ha (large crabgrass; Digitaria sanguinalis, pre-emergence, 312 h, 250 g ai/ha, scale 0 to 100 (0 no effect, 100 complete control), visual, 12 to 14 days, read-out: Plant response rating, Crabgrass, Large): 75% | Crabgrass, Large plant response rating (large crabgrass; [2]): 100 | pest or weed control at 62 g/ha (bermudagrass; Cynodon dactylon, pre-emergence, 312 h, 62 g ai/ha, preemergence, scale 0 to 100, 0 no effect, 100 complete control, read-out: Plant response rating, Bermudagrass): 20% | pest or weed control at 125 g/ha (bermudagrass; Cynodon dactylon, pre-emergence, 312 h, 125 g ai/ha, scale 0 (no effect) to 100 (complete control), visual, 12 to 14 days, read-out: Plant response rating, Bermudagrass): 75% | pest or weed control at 250 g/ha (bermudagrass; Cynodon dactylon, pre-emergence, 312 h, 250 g ai/ha, scale 0 to 100 (0 no effect, 100 complete control), visual, 12 to 14 days, read-out: Plant response rating, Bermudagrass): 90% | pest or weed control at 500 g/ha (bermudagrass; Cynodon dactylon, pre-emergence, 312 h, Preemergence, 500 g ai/ha, scale 0 to 100, 0 no effect, 100 complete control, read-out: Bermudagrass plant response rating): 95% | Foxtail, Giant plant response rating (giant foxtail; [2]): 60 | pest or weed control at 62 g/ha (giant foxtail; Setaria faberi, pre-emergence, 312 h, 62 g ai/ha, preemergence, scale 0 to 100, read-out: Plant response rating, Foxtail, Giant): 0% | pest or weed control at 125 g/ha (giant foxtail; Setaria faberi, pre-emergence, 312 h, 125 g ai/ha, scale 0 (no effect) to 100 (complete control), visual, 12 to 14 days, read-out: Plant response rating, Foxtail, Giant): 0% | pest or weed control at 250 g/ha (giant foxtail; Setaria faberi, pre-emergence, 312 h, 250 g ai/ha, scale 0 to 100 (0 no effect, 100 complete control), visual, 12 to 14 days, read-out: Plant response rating, Foxtail, Giant): 60% | pest or weed control at 62 g/ha (pigweed; Amaranthus retroflexus, pre-emergence, 62 g ai/ha, preemergence, scale 0 to 100, read-out: Plant response rating, Pigweed): 95% | pest or weed control at 125 g/ha (pigweed; Amaranthus retroflexus, pre-emergence, 125 g ai/ha, scale 0 (no effect) to 100 (complete control), visual, 12 to 14 days, read-out: Plant response rating, Pigweed): 95% | Pigweed plant response rating (pigweed; [2]): 95

C#CCn1nc(C(C)(C)C)cc1C(=O)Nc1cccc(C(=O)NCC)c1 [Compound 50]
Plant response rating (0 = no effect, 100 = complete control), Goosegrass (goosegrass; 62 g ai/ha, preemergence): 40 | Plant response rating, Goosegrass (goosegrass; [3]): 80 | Plant response rating, Goosegrass (goosegrass; [4]): 100 | Plant response rating, Goosegrass (goosegrass; [5]): 30 | Plant response rating, Goosegrass (goosegrass; [6]): 90 | Goosegrass plant response rating (goosegrass; [1]): 100 | Plant response rating, Goosegrass (goosegrass; [7]): 30 | Plant response rating (0 = no effect, 100 = complete control), Cupgrass, Woolly (woolly cupgrass; 62 g ai/ha, preemergence): 0 | Plant response rating, Cupgrass, Woolly (woolly cupgrass; [3]): 10 | Plant response rating, Cupgrass, Woolly (woolly cupgrass; [4]): 30 | Cupgrass, Woolly plant response rating (woolly cupgrass; Postemergence, scale 0 to 100): 0 | Plant response rating, Cupgrass, Woolly (woolly cupgrass; [5]): 0 | Plant response rating, Cupgrass, Woolly (woolly cupgrass; [6]): 0 | Cupgrass, Woolly plant response rating (woolly cupgrass; [2]): 70 | Plant response rating, Cupgrass, Woolly (woolly cupgrass; [7]): 0 | Plant response rating (0 = no effect, 100 = complete control), Crabgrass, Large (large crabgrass; 62 g ai/ha, preemergence): 0 | Plant response rating, Crabgrass, Large (large crabgrass; [3]): 0 | Plant response rating, Crabgrass, Large (large crabgrass; [4]): 20 | Crabgrass, Large plant response rating (large crabgrass; Postemergence, scale 0 to 100): 0 | Plant response rating, Crabgrass, Large (large crabgrass; [5]): 0 | Plant response rating, Crabgrass, Large (large crabgrass; [6]): 0 | Crabgrass, Large plant response rating (large crabgrass; [2]): 80 | Plant response rating, Crabgrass, Large (large crabgrass; [7]): 0 | Plant response rating (0 = no effect, 100 = complete control), Bermudagrass (bermudagrass; 62 g ai/ha, preemergence): 0 | Plant response rating, Bermudagrass (bermudagrass; [3]): 0 | Plant response rating, Bermudagrass (bermudagrass; [4]): 0 | Bermudagrass plant response rating (bermudagrass; Postemergence, 500 g ai/ha, scale 0 to 100): 40 | Plant response rating, Bermudagrass (bermudagrass; [5]): 30 | Bermudagrass plant response rating (bermudagrass; Postemergence, 250 g ai/ha, scale 0 to 100): 30 | Bermudagrass plant response rating (bermudagrass; Preemergence, 500 g ai/ha, scale 0 to 100, 0 no effect, 100 complete control): 10 | Plant response rating, Bermudagrass (bermudagrass; [7]): 0 | Plant response rating (0 = no effect, 100 = complete control), Foxtail, Giant (giant foxtail; 62 g ai/ha, preemergence): 0 | Plant response rating, Foxtail, Giant (giant foxtail; [3]): 0 | Plant response rating, Foxtail, Giant (giant foxtail; [4]): 0 | Foxtail, Giant plant response rating (giant foxtail; Postemergence, scale 0 to 100): 0 | Plant response rating, Foxtail, Giant (giant foxtail; [5]): 0 | Plant response rating, Foxtail, Giant (giant foxtail; [6]): 0 | Foxtail, Giant plant response rating (giant foxtail; [2]): 10 | Plant response rating, Foxtail, Giant (giant foxtail; [7]): 0 | Plant response rating (0 = no effect, 100 = complete control), Pigweed (pigweed; 62 g ai/ha, preemergence): 90 | Plant response rating, Pigweed (pigweed; [3]): 90 | Plant response rating, Pigweed (pigweed; [4]): 95 | Pigweed plant response rating (pigweed; Postemergence, scale 0 to 100): 100 | Plant response rating, Pigweed (pigweed; [6]): 100 | Pigweed plant response rating (pigweed; [2]): 95 | Plant response rating, Pigweed (pigweed; [7]): 50

CCOC(=O)c1cccc(NC(=O)c2nn(C(C)(C)CC)nc2CC)c1 [Compound 375]
Plant response rating, Goosegrass (goosegrass; [8]): 60 | Plant response rating (0 = no effect, 100 = complete control), Goosegrass (goosegrass; 125 g ai/ha, preemergence): 100 | Plant response rating, Goosegrass (goosegrass; [9]): 100 | Plant response rating, Goosegrass (goosegrass; [6]): 50 | Plant response rating, Goosegrass (goosegrass; [10]): 15 | Plant response rating, Goosegrass (goosegrass; [7]): 15 | Plant response rating, Cupgrass, Woolly (woolly cupgrass; [8]): 60 | Plant response rating (0 = no effect, 100 = complete control), Cupgrass, Woolly (woolly cupgrass; 125 g ai/ha, preemergence): 70 | Plant response rating, Cupgrass, Woolly (woolly cupgrass; [9]): 70 | Plant response rating, Cupgrass, Woolly (woolly cupgrass; [6]): 45 | Plant response rating, Cupgrass, Woolly (woolly cupgrass; [10]): 30 | Plant response rating, Cupgrass, Woolly (woolly cupgrass; [7]): 30 | Plant response rating, Crabgrass, Large (large crabgrass; [8]): 60 | Plant response rating (0 = no effect, 100 = complete control), Crabgrass, Large (large crabgrass; 125 g ai/ha, preemergence): 70 | Plant response rating, Crabgrass, Large (large crabgrass; [9]): 100 | Plant response rating, Crabgrass, Large (large crabgrass; [6]): 20 | Plant response rating, Crabgrass, Large (large crabgrass; [10]): 20 | Plant response rating, Crabgrass, Large (large crabgrass; [7]): 5 | Plant response rating, Bermudagrass (bermudagrass; 31 g ai/ha, scale 0 to 100, 0 no effect, 100 complete control, last section of Table C (species set of preemergence test)): 95 | Plant response rating, Bermudagrass (bermudagrass; 62 g ai/ha, preemergence, scale 0 to 100, 0 no effect, 100 complete control): 100 | Plant response rating (0 = no effect, 100 = complete control), Bermudagrass (bermudagrass; 125 g ai/ha, preemergence): 100 | Plant response rating, Bermudagrass (bermudagrass; [9]): 100 | Plant response rating, Bermudagrass (bermudagrass; [6]): 60 | Plant response rating, Bermudagrass (bermudagrass; [10]): 30 | Plant response rating, Bermudagrass (bermudagrass; postemergence, 31 g ai/ha, scale 0 to 100): 5 | Plant response rating, Bermudagrass (bermudagrass; [7]): 20 | Plant response rating, Foxtail, Giant (giant foxtail; [8]): 70 | Plant response rating (0 = no effect, 100 = complete control), Foxtail, Giant (giant foxtail; 125 g ai/ha, preemergence): 80 | Plant response rating, Foxtail, Giant (giant foxtail; [6]): 60 | Plant response rating, Foxtail, Giant (giant foxtail; [10]): 45 | Plant response rating, Foxtail, Giant (giant foxtail; [7]): 40 | Plant response rating, Pigweed (pigweed; [8]): 50 | Plant response rating (0 = no effect, 100 = complete control), Pigweed (pigweed; 125 g ai/ha, preemergence): 50 | Plant response rating, Pigweed (pigweed; [9]): 100 | Plant response rating, Pigweed (pigweed; [7]): 80

Source: patent US20060069132A1, “Azolecarboxamide herbicides” (priority 2004, published 2006)
